Results: ChEMBL document CHEMBL1140142, “Myxochromide B3, a new member of the myxochromide family of secondary metabolites” (J Nat Prod, 2008)
The source made the active and inactive calls.

Tests used:
Format in all cases: functional, organism-based
[1] = tested on: Microbotryum violaceum; test: Antimicrobial activity against Microbotryum violaceum at 50 ug/disk by disk diffusion assay
[2] = tested on: Mycotypha microspora; test: Antimicrobial activity against Mycotypha microspora at 50 ug/disk by disk diffusion assay
[3] = tested on: Aspergillus ruber; test: Antimicrobial activity against Eurotium rubrum at 50 ug/disk by disk diffusion assay
[4] = tested on: [Chlorella] fusca; test: Antimicrobial activity against Chlorella fusca at 50 ug/disk by disk diffusion assay; details: Scenedesmus fuscus
[5] = tested on: Escherichia coli; test: Antimicrobial activity against Escherichia coli at 50 ug/disk by disk diffusion assay
[6] = tested on: Priestia megaterium; test: Antimicrobial activity against Bacillus megaterium at 50 ug/disk by disk diffusion assay

Measured: Activity

C/C=C/C=C/C=C/C=C/C=C/C=C/C=C/C=C/C(=O)N(C)[C@@H]1C(=O)N[C@H](C)C(=O)N[C@@H](CC(C)C)C(=O)N[C@@H](CC(C)C)C(=O)N2CCC[C@H]2C(=O)N[C@@H](C)C(=O)N[C@@H](CCC(N)=O)C(=O)O[C@@H]1C
inactive: [1] | [2] | [3] | [4] | [5] | [6]

C/C=C/C=C/C=C/C=C/C=C/C=C/C=C/C=C/C(=O)N(C)[C@@H]1C(=O)N[C@H](C)C(=O)N[C@@H](CC(C)C)C(=O)N2CCC[C@H]2C(=O)N[C@@H](C)C(=O)N[C@@H](CCC(N)=O)C(=O)O[C@@H]1C
inactive: [1] | [2] | [3] | [4] | [5] | [6]
